In patent US6599901B1, “Pyridone substituted benzothiazole derivatives” (Hoffman-La Roche Inc., priority 2001, dated 2003):

biological target: T1, human adenosine A1 receptor (Homo sapiens, UniProt P30542); assay: [3H]-DPCPX binding assay, human adenosine A1 receptor (CHO cell membranes, SPA); conditions: recombinant human A1 receptor in CHO membranes; [3H]-DPCPX 0.6 nM; Ki by Cheng-Prussoff; read-out: hA1 (pKi) (converted)
T1 construct: expressed in transfected cells; host or cells: CHO cells, semliki forest virus expression system
T1 sequence (P30542 1-326): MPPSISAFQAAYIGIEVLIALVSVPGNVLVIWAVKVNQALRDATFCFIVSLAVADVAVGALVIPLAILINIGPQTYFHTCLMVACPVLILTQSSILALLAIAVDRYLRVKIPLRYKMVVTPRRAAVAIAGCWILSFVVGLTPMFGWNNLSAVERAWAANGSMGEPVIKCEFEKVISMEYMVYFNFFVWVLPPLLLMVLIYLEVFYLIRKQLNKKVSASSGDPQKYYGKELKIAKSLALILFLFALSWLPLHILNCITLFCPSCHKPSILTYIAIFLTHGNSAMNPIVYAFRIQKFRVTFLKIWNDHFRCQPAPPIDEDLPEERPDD
Method: (§1) The human adenosine A1 receptor was recombinantly expressed in chinese hamster ovary (CHO) cells using the semliki forest virus expression system. Cells were harvested, washed twice by centrifugation, homogenised and again washed by centrifugation. The final washed membrane pellet was suspended in a Tris (50 mM) buffer containing 120 mM NaCl, 5 mM KCl, 2 mM CaCl2 and 10 mM MgCl2 (pH 7.4) (buffer A). The [^3H]-DPCPX (([propyl-^3H]8-cyclopentyl-1,3-dipropyxanthine); 0.6 nM) binding assay was carried out in 96-well plates in the presence of 2.5 μg of membrane protein, 0.5 mg of Ysi-poly-1-lysine SPA beads and 0.1 U adenosine deaminase in a final volume of 200 μl of buffer A. Non-specific binding was defined using xanthine amine congener (XAC; 2 μM). Compounds were tested at 10 concentrations from 10 μM-0.3 nM. All assays were conducted in duplicate and repeated at least two times. Assay plates were incubated for 1 hour at room temperature before centrifugation and then bound ligand determined using a Packard Topcount scintillation counter. IC50 values were calculated using a non-linear curve fitting program and Ki values calculated using the Cheng-Prussoff equation.

Row | Ki [nM] | SMILES
1 | 1260 | COc1ccc(N2CCOCC2)c2sc(NC(=O)c3ccn(Cc4ccccc4)c(=O)c3)nc12 [Example 1, 1-Benzyl-2-oxo-1,2-dihydro-pyridine-4-carboxylic Acid (4-Methoxy-7-morpholin-4-yl-benzothiazol-2-yl)-amide]

biological target: T2, human adenosine A2A receptor (Homo sapiens, UniProt P29274); assay: [3H]-SCH-58261 binding assay, human adenosine A2A receptor (CHO cell membranes, SPA); conditions: recombinant human A2A receptor in CHO membranes; [3H]-SCH-58261 1 nM; Ki by Cheng-Prussoff; read-out: hA2 (pKi) (converted)
T2 construct: expressed in transfected cells; host or cells: CHO cells, semliki forest virus expression system
Method: as §1, with “A2A” for “A1”, “[^3H]-SCH-58261 (Dionisotti et al., 1997, Br J Pharmacol 121, 353; 1” for “[^3H]-DPCPX (([propyl-^3H]8-cyclopentyl-1,3-dipropyxanthine); 0.6”, “[…]” for “μg”

T2 sequence (P29274 whole entry): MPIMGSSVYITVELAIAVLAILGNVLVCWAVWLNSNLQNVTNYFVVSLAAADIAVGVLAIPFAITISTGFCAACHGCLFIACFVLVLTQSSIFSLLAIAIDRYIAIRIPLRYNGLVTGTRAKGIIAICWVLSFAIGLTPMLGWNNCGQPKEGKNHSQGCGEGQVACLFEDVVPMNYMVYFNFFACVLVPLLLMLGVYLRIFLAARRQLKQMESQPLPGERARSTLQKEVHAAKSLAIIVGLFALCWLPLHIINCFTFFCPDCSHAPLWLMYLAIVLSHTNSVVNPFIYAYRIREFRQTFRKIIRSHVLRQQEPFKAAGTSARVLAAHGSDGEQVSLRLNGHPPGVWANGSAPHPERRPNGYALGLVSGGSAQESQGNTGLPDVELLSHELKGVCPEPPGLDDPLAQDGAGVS

Row | Ki [nM] | SMILES
2 | 58.9 | COc1ccc(N2CCOCC2)c2sc(NC(=O)c3ccn(CC(=O)N4CCOCC4)c(=O)c3)nc12 [Example 5, 1-(2-Morpholin-4-yl-2-oxo-ethyl)-2-oxo-1,2-dihydro-pyridine-4-carboxylic Acid (4-Methoxy-7-morpholin-4-yl-benzothiazol-2-yl)-amide]
3 | 6.46 | CCOC(=O)Cn1ccc(C(=O)Nc2nc3c(OC)ccc(N4CCOCC4)c3s2)cc1=O [Example 2, [4-(4-Methoxy-7-morpholin-4-yl-benzothiazol-2-ylcarbamoyl)-2-oxo-2H-pyridin-1-yl]-acetic Acid Ethyl Ester]
4 | 50.1 | COc1ccc(N2CCOCC2)c2sc(NC(=O)c3ccn(CC(=O)N(C)C)c(=O)c3)nc12 [Example 6, 1-Dimethylcarbamoylmethyl-2-oxo-1,2-dihydro-pyridine-4-carboxylic Acid (4-Methoxy-7-morpholin-4-yl-benzothiazol-2-yl)-amide]
5 | 5.75 | CCC(=O)Cn1ccc(C(=O)Nc2nc3c(OC)ccc(N4CCOCC4)c3s2)cc1=O [Example 3, 2-oxo-1-(2-oxo-Butyl)-1,2-dihydro-pyridine-4-carboxylic Acid (4-Methoxy-7-morpholin-4-yl-benzothiazol-2-yl)-amide]
6 | 2.14 | COc1ccc(N2CCOCC2)c2sc(NC(=O)c3ccn(Cc4ccccc4)c(=O)c3)nc12 [Example 1, 1-Benzyl-2-oxo-1,2-dihydro-pyridine-4-carboxylic Acid (4-Methoxy-7-morpholin-4-yl-benzothiazol-2-yl)-amide]
7 | 7.94 | COc1ccc(N2CCOCC2)c2sc(NC(=O)c3ccn(Cc4ccccn4)c(=O)c3)nc12 [Example 4, 2-oxo-1-Pyridin-2-ylmethyl-1,2-dihydro-pyridine-4-carboxylic Acid (4-Methoxy-7-morpholin-4-yl-benzothiazol-2-yl)-amide]
